Measured values published in patent publication US5622951A, “Piperazine derivatives as 5-HT antagonists” (John Wyeth & Brother Ltd., priority 1993, dated 1997).

Key:
5-HT1A receptor [1] = biological target: T1, 5-HT1A receptor (Cavia porcellus, UniProt A0A286Y074); experiment: 5-HT1A receptor antagonism: antagonism of 5-carboxamidotryptamine in the guinea-pig ileum in vitro (Fozard et al); conditions: read-out: pA2, 5-HT1A receptor antagonism (converted)
T1 construct: in the guinea-pig ileum in vitro; from tissue; host or cells: guinea-pig ileum, isolated
T1 sequence (A0A286Y074 1-421): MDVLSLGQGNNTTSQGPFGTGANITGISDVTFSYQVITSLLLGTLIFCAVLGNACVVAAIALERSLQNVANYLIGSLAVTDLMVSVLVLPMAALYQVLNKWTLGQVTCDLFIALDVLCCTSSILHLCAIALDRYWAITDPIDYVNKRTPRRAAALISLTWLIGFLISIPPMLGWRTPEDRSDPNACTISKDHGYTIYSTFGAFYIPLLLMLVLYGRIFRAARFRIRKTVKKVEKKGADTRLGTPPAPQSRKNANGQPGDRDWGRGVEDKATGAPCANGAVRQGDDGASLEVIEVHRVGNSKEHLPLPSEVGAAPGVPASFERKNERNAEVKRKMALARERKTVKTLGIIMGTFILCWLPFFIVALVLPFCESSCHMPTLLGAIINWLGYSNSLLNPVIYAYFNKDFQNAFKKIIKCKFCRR
Method: The compounds are tested for 5-HT1A receptor antagonism activity in a test involving the antagonism of 5-carboxamidotryptamine in the guinea-pig ileum in vitro (based upon the procedure of Fozard et at, Br J Pharmac, 1985, 86, 601P).

5-HT1A receptor [2] = biological target: T2, 5-HT1A receptor (Rattus norvegicus, UniProt P19327); experiment: 5-HT1A receptor binding in rat hippocampal membrane homogenate (Alexander and Wood)
T2 construct: rat hippocampal membrane homogenate; from tissue; host or cells: rat hippocampus, membrane homogenate
T2 sequence (P19327 1-422): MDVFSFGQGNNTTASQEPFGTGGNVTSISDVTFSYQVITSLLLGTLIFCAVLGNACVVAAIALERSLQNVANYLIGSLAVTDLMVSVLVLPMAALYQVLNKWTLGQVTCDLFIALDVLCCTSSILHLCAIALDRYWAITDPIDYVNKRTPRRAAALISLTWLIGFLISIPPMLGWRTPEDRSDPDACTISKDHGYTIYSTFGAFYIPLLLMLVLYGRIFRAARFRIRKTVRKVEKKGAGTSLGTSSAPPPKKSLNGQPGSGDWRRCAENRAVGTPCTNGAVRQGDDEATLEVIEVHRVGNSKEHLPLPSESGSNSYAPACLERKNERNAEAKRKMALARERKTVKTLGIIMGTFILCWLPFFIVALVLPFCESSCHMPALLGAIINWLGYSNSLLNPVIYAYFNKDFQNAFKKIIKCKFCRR
Method: The compounds of the invention were tested for 5-HT1A receptor binding activity in rat hippocampal membrane homogenate by the method of B S Alexander and M D Wood, J Pharm Pharmacol, 1988, 40, 888-891.

Row | Kb (5-HT1A receptor [1]) | IC50 (5-HT1A receptor [2]) | SMILES
1 | 0.794 nM | 0.6 nM | COc1ccccc1N1CCN([C@H]2CC[C@H](c3ccccc3)CC2)CC1 [Example 1 (trans), trans-1-(2-methoxyphenyl)-4-(1-phenylcyclohex-4-yl)piperazine]
2 |  | 1.84 nM | COc1ccccc1N1CCN(C2CC=C(c3ncc(C)cc3C)CC2)CC1 (stereo not shown) [Example 19, 1-(2-Methoxyphenyl)-4-[1-(3,5-dimethylpyridin-2-yl)-cyclohex-1-en-4-yl]piperazine]
3 |  | 1.6 nM | COc1ccccc1N1CCN([C@H]2CC[C@H](c3ncc(C)cc3C)CC2)CC1 [Example 20, Trans-1-(2-Methoxyphenyl)-4-[1-(3,5-dimethylpyridin-2-yl)-cyclohex-4-yl]piperazine]
